# Source: publication PMC7692187, “Rapid In Vivo Validation of HDAC Inhibitor-Based Treatments in Neuroblastoma Zebrafish Xenografts” (Pharmaceuticals, 2020)
# pIC50: −log10 of the molar value.
# Tests used:
# zebrafish larvae = experiment: Toxicity test: three-day treatment of fish larvae without injection of tumor cells; format: in vivo, zebrafish (Danio rerio); settings: three-day incubation time at 34 °C, drug in buffer
# Description: (§1) For treatment, larvae were incubated in freshly prepared buffer solution supplemented with 0.2 mM PTU, containing the drug of interest at increasing concentrations. Drug-containing solutions were administered at the beginning of the experiment and were not replaced during the incubation period. Solvent control was applied in the same manner as the drug treatments.
# xenografted tumor cells = experiment: Dose response in zebrafish xenografts: relative IC50 from the change in tumor volume; format: in vivo, human; settings: Danio rerio, compared to solvent, drug applied to surrounding water, n = 3–5 fish per concentration; for pIC50: 48 h treatment from 24 hpi
# Description: (§2) To determine optimal drug concentrations, larvae bearing xenografted tumor cells were incubated with increasing drug concentrations 24 h post implantation (hpi), ranging from the concentrations used in previous cell culture experiments to the MTD(larvae) (Figure 2a). […] Using these concentrations, we evaluated whether HDACis were able to reach their specific enzymatic targets.
# (§3) Right: representative images of immunohistochemical staining (c) Left: quantification of staining for acetylated histone H3. Right: representative images of immunohistochemical staining.
# as §1
# cleaved caspase-3 = experiment: IHC staining for cleaved caspase-3 in SK-N-BE(2)-C zebrafish xenografts; format: in vivo, human; settings: 48 h exposure, compared to solvent-treated control
# Description: (§4) Due to this relatively short treatment duration (48 h), the apoptosis induction of the combination therapy is predominant over the antiproliferative effect.
# (§5) Left panel: representative images of sections stained against cleaved caspase-3. […] The number of positive cells was calculated as the ratio of positive to total cells counted, relative to solvent. […] (b) Left panel: representative images of sections stained against phospho-histone H3, a marker specific for cells undergoing mitosis. […] The number of positive cells (%) was calculated as the ratio of positive to total cells counted.
# (§6) Following fixation (24 h at 4 °C) in Special Fixative for Anatomy and Histology (Morphisto, Frankfurt am Main, Germany), xenografted zebrafish larvae were transferred to embedding cassettes equipped with biopsy pads, dehydrated, and infiltrated with paraffin. […] FIJI software and a macro program were employed for quantitative analysis of the xenograft slides, while the analysis of slides obtained from neuroblastoma patients was carried out manually. All quantitative analyses were performed in a blinded fashion on the xenograft slides (five tissue sections per zebrafish larva), which were obtained from at least two xenotransplantation replicates.
# phospho-histone H3 = experiment: IHC staining for phospho-histone H3 (pHH3) in SK-N-BE(2)-C zebrafish xenografts; format: in vivo, human; settings: 48 h exposure; solvent-treated 47%
# Description: as §4, §5, §6
# [1] = tested on: acetylated α-tubulin (substrate of HDAC6); experiment: IHC staining for acetylated α-tubulin in SK-N-BE(2)-C zebrafish xenografts; format: in vivo, human; settings: 50 µM, 48 h, SK-N-BE(2)-C xenografts, versus solvent
# Description: as §2, §3
# (§7) Following fixation (24 h at 4 °C) in Special Fixative for Anatomy and Histology (Morphisto, Frankfurt am Main, Germany), xenografted zebrafish larvae were transferred to embedding cassettes equipped with biopsy pads, dehydrated, and infiltrated with paraffin. Briefly, fixed larvae were dehydrated using Leica ASP300S tissue processor (Leica Biosystems, Wetzlar, Germany) through incubation in aqueous solutions of increasing ethanol concentration (1 h in 50% ethanol, 2 h in 70% ethanol, 2 h in 80% ethanol, 1 h in 96% ethanol, 3 h in absolute ethanol) and thereafter incubated with xylene for 5 h. Next, samples were transferred to liquid paraffin at 60 °C and allowed to infiltrate for 5 h.
# [2] = tested on: acetylated histone H3 (substrate of HDAC1–3); experiment: IHC staining for acetylated histone H3 in SK-N-BE(2)-C zebrafish xenografts; format: in vivo, human; settings: 48 h exposure at IC50 concentrations (tubastatin A 50 µM), SK-N-BE(2)-C xenografts
# Description: as §2, §3, §7
# SK-N-BE(2)-C cells = experiment: Doxorubicin accumulation in engrafted tumor cells and zebrafish tissues; format: in vivo, human; settings: tubastatin A 50 µM with doxorubicin 110 ng/mL, 48 h, relative to doxorubicin alone
# Description: Doxorubicin has an intrinsic fluorescence due to the presence of a hydroxy-substituted anthraquinone chromophore.
# (b,c) Representative images (b) and quantification (c) of zebrafish larvae engrafted with Hoechst stained and doxorubicin-treated SK-N-BE(2)-C cells. Larvae, except of unstained larvae, were exposed for 48 h to doxorubicin (red fluorescence) and tubastatin A or solvent. Red fluorescence of doxorubicin was visualized by confocal microscopy and normalized to tumor area. Results are presented as log2 fold change (FC) relative to doxorubicin alone. […] One-way ANOVA with Tukey’s multiple comparison test, scale bar = 50 µm.
# SK-N-BE(2)-C cells were incubated with Hoechst nucleic acid dye (Thermo Fisher Scientific) at a concentration of 10 µg/mL for 30 min at 37 °C. […]
# Zebrafish larvae engrafted with Hoechst-stained SK-N-BE(2)-C cells were exposed to solvent, doxorubicin, or doxorubicin combined with tubastatin A for 48 h. Red fluorescence of doxorubicin was visualized by confocal microscopy. Doxorubicin has an intrinsic fluorescence due to the presence of a hydroxy-substituted anthraquinone chromophore, with typical excitation and emission maxima in the range of 500 nm and 552–585 nm, respectively. Total fluorescence intensity in the tumor area (determined by nuclear staining) was defined as that above the threshold set by the solvent group and was quantified using a macro program.
Structure (SMILES),Maximum Tolerated Dose (MTD) (zebrafish larvae),IC50 (xenografted tumor cells; 48 h treatment),number of cells positive for cleaved caspase-3 (cleaved caspase-3),average number of tumor cells per slide positive for pHH3 (phospho-histone H3),pIC50 (xenografted tumor cells),increase of acetylated α-tubulin [1],cells stained positive for ac-histone H3 [2],doxorubicin accumulation in zebrafish tissues and engrafted tumor cells (SK-N-BE(2)-C cells)
COc1cccc2c1C(=O)c1c(O)c3c(c(O)c1C2=O)C[C@@](O)(C(=O)CO)C[C@@H]3O[C@H]1C[C@H](N)[C@H](O)[C@H](C)O1 [doxorubicin],500 ng/mL,0.11 µg/mL,increased,38%,–,–,–,–
O=C(CCCCCCC(=O)Nc1ccccc1)NO [vorinostat],100 µM,–,increased,30%,–,–,–,–
Cc1[nH]c2ccccc2c1CCNCc1ccc(/C=C/C(=O)NO)cc1 [panobinostat],1 µM,–,–,–,6.70,–,–,–
CN1CCc2c(c3ccccc3n2Cc2ccc(C(=O)NO)cc2)C1 [tubastatin A],200 µM,–,–,–,4.30,5 fold,not acetylated H3,increased
